From ChEMBL document CHEMBL1128291, “The C-32 triacetyl-L-rhamnose derivative of ascomycin: a potent, orally active macrolactone immunosuppressant” (J Med Chem, 1995)

What was measured:
Rattus norvegicus [1] = assay: In vivo immunosuppressive activity was evaluated by inducing arthritis in lewis rats and measuring the secondary lesions after 16 days; format: functional; details: 384 h
[2] = Drug plasma level in rat was determined on the last day of dosing at 1,2,4.8 and 24 hr and ED50 was evaluated; format: ADME, organism-based
Rattus norvegicus [3] = assay: In vivo immunosuppressive activity was evaluated by surgically implanting the hearts from Brown Norway rats into the peritoneal cavity of histoincompatible Lewis rats and rejection was assessed; format: functional
[4] = Therapeutic index was determined from the ratio of MND to the ED50 Cmax.(rat adjuvant arthritis)
Rattus norvegicus [5] = species on record: Rattus norvegicus; assay: Minimum neurotoxic dose from ED50(rat adjuvant arthritis); format: functional
Rattus norvegicus [6] = species on record: Rattus norvegicus; assay: Minimum neurotoxic dose/Cmax was determined from ED50(rat adjuvant arthritis); format: functional
T-cell [7] = assay: In vitro inhibitory activity against human T-cell proliferation.; format: functional, cell-based
Rattus norvegicus [8] = assay: In vivo immunosuppressive activity was evaluated by inducing arthritis in lewis rats and measuring the primary lesions after 16 days; format: functional; details: 384 h
T-cell [9] = assay: In vitro inhibitory activity against human T-cell production of lymphokine IL-2; format: functional, cell-based
[10] = Therapeutic index is the plasma Cmax ratio of the minimum neurotoxic dose over the ED50 dose in rat adjuvant arthritis; details: read-out: TI

| Compound | ED50 (Rattus norvegicus [1]) [mg/kg] | Cmax [2] [µg/mL] | ED100 (Rattus norvegicus [3]) [mg/kg] | Therapeutic index [4] | MND (Rattus norvegicus [5]) [mg/kg] | MND Cmax (Rattus norvegicus [6]) [ng/mL] | IC50 (T-cell [7]) [nM] | ED50 (Rattus norvegicus [8]) [mg/kg] | IC50 (T-cell [9]) [nM] | selectivity ratio [10] |
| --- | --- | --- | --- | --- | --- | --- | --- | --- | --- | --- |
| CC[C@@H]1/C=C(\C)C[C@H](C)C[C@H](OC)[C@H]2O[C@@](O)(C(=O)C(=O)N3CCCC[C@H]3C(=O)O[C@H](/C(C)=C/[C@@H]3CC[C@@H](OC4OC(C)C(OC(C)=O)C(OC(C)=O)C4OC(C)=O)[C@H](OC)C3)[C@H](C)[C@@H](O)CC1=O)[C@H](C)C[C@@H]2OC (stereo partly drawn) | 2.3 | 0.254 | 30 | > 10 | > 300 | > 2910 | 10.4 | 10 | 11 | > 10 |
| C/C=C/C[C@@H](C)[C@@H](O)[C@H]1C(=O)N[C@@H](CC)C(=O)N(C)CC(=O)N(C)[C@@H](CC(C)C)C(=O)N[C@@H](C(C)C)C(=O)N(C)[C@@H](CC(C)C)C(=O)N[C@@H](C)C(=O)N[C@H](C)C(=O)N(C)[C@@H](CC(C)C)C(=O)N(C)[C@@H](CC(C)C)C(=O)N(C)[C@@H](C(C)C)C(=O)N1C [CYCLOSPORINE] | 0.7 | – | 15 | – | – | – | – | 3.4 | – | – |
| C=CC[C@@H]1/C=C(\C)C[C@H](C)C[C@H](OC)[C@H]2O[C@@](O)(C(=O)C(=O)N3CCCC[C@H]3C(=O)O[C@H](/C(C)=C/[C@@H]3CC[C@@H](O)[C@H](OC)C3)[C@H](C)[C@@H](O)CC1=O)[C@H](C)C[C@@H]2OC [TACROLIMUS ANHYDROUS] | 0.6 | 0.024 | 3 | 2 | 12 | 52 | 0.5 | 1.9 | 0.9 | ~2 |
